How the values were obtained:
[1] = system: established S. aureus biofilms; parameters: method as in PMID 27405275; conditions: 4× its MIC (32 μM) ref 52; cited from earlier work
S. aureus (SA38) [2] = experiment: Minimum inhibitory concentration (MIC) assay against S. aureus; assay type: cell-based, Staphylococcus aureus; conditions: Staphylococcus aureus
Method: The antimicrobial activity of the compounds was evaluated by MIC assay using the procedure described by Clinical and Laboratory Standards Institute (CLSI). A single colony of bacteria was cultured overnight in trypticase soy broth (TSB; Oxoid, Basingstoke, UK) at 37 °C with shaking. The resulting bacterial culture was collected by centrifugation and resuspended in TSB twice. The optical density (OD) of the resulting culture was adjusted to OD660 = 0.1 in TSB (which is equivalent to 10^8 colony forming unit (CFU)/mL bacteria). It was further diluted to 10^6 CFU/mL in TSB. 100 µL of the bacterial solution was then added to wells of a 96-well plate (Costar; Sigma-Aldrich, St Louis, MO, USA) containing 100 µL serially diluted peptide mimic, with final concentration ranging from 1 to 250 µM. Wells with bacteria but no compound were used as negative control while wells with only media were set as blank. The plates were then wrapped with parafilm to prevent evaporation and incubated with shaking at 120 rpm at 37 °C for 18–24 h, and the data were recorded by measuring the OD value at 660 nm using a FLUOstar Omega (BMG Labtech, Mornington, Victoria, Australia) microplate reader. […] Each experiment was performed in triplicate and was repeated in three independent experiments.

E. coli (K12) = conditions: no antibacterial activity at the highest concentration tested (250 μM) ref 43; cited from earlier work
S. aureus (SA38) [3] = conditions: previously synthesised N-sulfonylphenylglyoxamide iodide salts ref 43; cited from earlier work
P. aeruginosa (PA01) = conditions: no antibacterial activity at the highest concentration tested (250 μM) ref 43; cited from earlier work
Gram-negative bacteria = system: Gram-negative bacteria; parameters: method as in doi:10.1002/slct.201700336, PMID 28203673; conditions: previously reported ref 43, 44; cited from earlier work

LL-37: a natural antimicrobial peptide that is being tested in phase II clinical trials (LLGDFFRKSKEKIGKEFKRIVQRIKDFLRNLVPRTES; Antibacterial peptide LL-37; UniProt P49913 134-170, looked up)
disruption of mature S. aureus biofilms [1]: approximately 40%

CN(C)CCCNC(=O)C(=O)c1cc(-c2ccccc2)ccc1NC(=O)c1ccc2ccccc2c1 [Compound 25, N-(3-(2-((3-(Dimethylamino)propyl)amino)-2-oxoacetyl)-[1,1’-biphenyl]-4-yl)-2-naphthamide]
MIC (S. aureus (SA38) [2]): > 250 µM | melting point: 151.6 to 151.8 °C

CCCCCCCCS(=O)(=O)Nc1ccc(Br)cc1C(=O)C(=O)NCCC[N+](C)(C)C [Compound 4b]
MIC against E. coli (E. coli (K12)): > 250 µM | MIC against S. aureus (S. aureus (SA38) [3]): 63 µM | MIC against P. aeruginosa (P. aeruginosa (PA01)): > 250 µM | antibacterial activity against Gram-negative bacteria (Gram-negative bacteria): no antibacterial activity
